Test results from publication PMC5218480 (PLoS ONE, 2017).

System: MV-4-11 cells
Assay: Gene expression microarray analysis (Affymetrix PrimeView) and GSEA
Type: cell-based, human
Parameters: RFU PODN (11730768_x_at) / Fold change /veh PODN (11730768_x_at) / RFU LINC00158 (11744669_a_at) / Fold change /veh LINC00158 (11744669_a_at) / RFU DUSP10 (11751237_a_at) / Fold change /veh DUSP10 (11751237_a_at) / RFU ID3 (11757404_x_at) / Fold change /veh ID3 (11757404_x_at) / RFU PLEKHG5 (11737974_s_at) / Fold change /veh PLEKHG5 (11737974_s_at) / RFU LRRC4B (11730491_at) / Fold change /veh LRRC4B (11730491_at) / RFU GIMAP4 (11747438_a_at) / Fold change /veh GIMAP4 (11747438_a_at) / RFU KRT8 (11758183_x_at) / Fold change /veh KRT8 (11758183_x_at) / RFU CNN1 (11734310_a_at) / Fold change /veh CNN1 (11734310_a_at) / RFU VPS37D (11726825_at) / Fold change /veh VPS37D (11726825_at) / RFU C10orf10 (11716522_x_at) / Fold change /veh C10orf10 (11716522_x_at) / RFU KIR2DL2 /// KIR2DL4 /// KIR2DL5A /// KIR2DL5B /// KIR2DS1 /// KIR2DS2 /// KIR2DS3 /// KIR2DS4 /// KIR3DL3 /// KIR3DL3 /// KIR3DS1 (11738374_at) / Fold change /veh KIR2DL2 /// KIR2DL4 /// KIR2DL5A /// KIR2DL5B /// KIR2DS1 /// KIR2DS2 /// KIR2DS3 /// KIR2DS4 /// KIR3DL3 /// KIR3DL3 /// KIR3DS1 (11738374_at) / RFU C1QL1 (11718748_at) / Fold change /veh C1QL1 (11718748_at) / RFU TMPRSS4 (11747572_a_at) / Fold change /veh TMPRSS4 (11747572_a_at) / RFU HAMP (11756126_x_at) / Fold change /veh HAMP (11756126_x_at) / RFU RNFT2 (11725882_a_at) / Fold change /veh RNFT2 (11725882_a_at) / RFU NR4A2 (11747474_a_at) / Fold change /veh NR4A2 (11747474_a_at) / RFU ABCC12 (11746883_a_at) / Fold change /veh ABCC12 (11746883_a_at) / RFU TMEM136 (11760407_x_at) / Fold change /veh TMEM136 (11760407_x_at) / RFU CLDN22 /// WWC2 (11732394_at) / Fold change /veh CLDN22 /// WWC2 (11732394_at) / RFU HLA-DPB1 (11760878_x_at) / Fold change /veh HLA-DPB1 (11760878_x_at) / RFU SPINT1 (11716480_a_at) / Fold change /veh SPINT1 (11716480_a_at) / RFU GAP43 (11754022_s_at) / Fold change /veh GAP43 (11754022_s_at) / RFU A4GNT (11735810_at) / Fold change /veh A4GNT (11735810_at) / RFU PRB3 (11715151_x_at) / Fold change /veh PRB3 (11715151_x_at) / RFU TUBB4B (11761932_at) / Fold change /veh TUBB4B (11761932_at) / RFU CAPN14 (11732068_a_at) / Fold change /veh CAPN14 (11732068_a_at) / RFU TMCC2 (11721928_a_at) / Fold change /veh TMCC2 (11721928_a_at) / RFU IRGQ (11745062_a_at) / Fold change /veh IRGQ (11745062_a_at) / RFU FAM174B (11720279_a_at) / Fold change /veh FAM174B (11720279_a_at) / RFU TMPRSS4 (11748680_a_at) / Fold change /veh TMPRSS4 (11748680_a_at) / RFU FAM212B (11763350_a_at) / Fold change /veh FAM212B (11763350_a_at) / RFU PLEKHG5 (11743358_a_at) / Fold change /veh PLEKHG5 (11743358_a_at) / RFU ZSCAN30 (11745921_a_at) / Fold change /veh ZSCAN30 (11745921_a_at) / RFU CMKLR1 (11741424_a_at) / Fold change /veh CMKLR1 (11741424_a_at) / RFU LOC101060620 /// MAPK8IP1 (11723275_at) / Fold change /veh LOC101060620 /// MAPK8IP1 (11723275_at) / RFU SPTSSB (11747773_x_at) / Fold change /veh SPTSSB (11747773_x_at) / RFU PRSS12 (11739890_at) / Fold change /veh PRSS12 (11739890_at) / RFU BIN1 (11741810_x_at) / Fold change /veh BIN1 (11741810_x_at) / RFU WNT11 (11732464_a_at) / Fold change /veh WNT11 (11732464_a_at) / RFU C10orf10 (11716521_a_at) / Fold change /veh C10orf10 (11716521_a_at) / RFU C5orf56 (11738089_at) / Fold change /veh C5orf56 (11738089_at) / RFU CYB561 (11721691_x_at) / Fold change /veh CYB561 (11721691_x_at) / RFU ANKRD19P (11752326_a_at) / Fold change /veh ANKRD19P (11752326_a_at) / RFU OR2T12 /// OR2T33 /// OR2T8 (11738714_s_at) / Fold change /veh OR2T12 /// OR2T33 /// OR2T8 (11738714_s_at) / RFU VCAN (11748164_a_at) / Fold change /veh VCAN (11748164_a_at) / RFU JSRP1 (11732532_at) / Fold change /veh JSRP1 (11732532_at) / RFU KRTAP10-11 (11738290_x_at) / Fold change /veh KRTAP10-11 (11738290_x_at) / RFU MYO3A (11730013_a_at) / Fold change /veh MYO3A (11730013_a_at) / RFU EBF3 (11725865_a_at) / Fold change /veh EBF3 (11725865_a_at) / RFU CAMK2N1 (11719241_x_at) / Fold change /veh CAMK2N1 (11719241_x_at) / RFU C5orf56 (11738088_a_at) / Fold change /veh C5orf56 (11738088_a_at) / RFU OLFML3 (11715873_a_at) / Fold change /veh OLFML3 (11715873_a_at) / RFU LOC100653217 /// NTM (11731650_a_at) / Fold change /veh LOC100653217 /// NTM (11731650_a_at) / RFU MAPK11 (11762145_a_at) / Fold change /veh MAPK11 (11762145_a_at) / RFU FIZ1 (11724087_x_at) / Fold change /veh FIZ1 (11724087_x_at) / RFU OASL (11726364_x_at) / Fold change /veh OASL (11726364_x_at) / RFU SOX15 (11748057_x_at) / Fold change /veh SOX15 (11748057_x_at) / RFU CD79A (11719716_a_at) / Fold change /veh CD79A (11719716_a_at) / RFU HIST1H1D (11736915_at) / Fold change /veh HIST1H1D (11736915_at) / RFU CASKIN2 (11723855_a_at) / Fold change /veh CASKIN2 (11723855_a_at) / RFU LOC730098 (11760151_x_at) / Fold change /veh LOC730098 (11760151_x_at) / RFU OR4N2 (11742367_at) / Fold change /veh OR4N2 (11742367_at) / RFU PRRT2 (11749266_a_at) / Fold change /veh PRRT2 (11749266_a_at) / RFU SNX32 (11753110_a_at) / Fold change /veh SNX32 (11753110_a_at) / RFU CDHR5 (11726645_a_at) / Fold change /veh CDHR5 (11726645_a_at) / RFU RCAN1 (11760418_a_at) / Fold change /veh RCAN1 (11760418_a_at) / RFU FAM167A (11723789_a_at) / Fold change /veh FAM167A (11723789_a_at) / RFU FAM26E (11764081_at) / Fold change /veh FAM26E (11764081_at) / RFU ISYNA1 (11749810_s_at) / Fold change /veh ISYNA1 (11749810_s_at) / RFU ACY1 (11761880_at) / Fold change /veh ACY1 (11761880_at) / RFU 11764098_at / Fold change /veh 11764098_at / RFU SAMD14 (11745864_x_at) / Fold change /veh SAMD14 (11745864_x_at) / RFU NPB (11741838_a_at) / Fold change /veh NPB (11741838_a_at) / RFU TMPRSS6 (11731388_a_at) / Fold change /veh TMPRSS6 (11731388_a_at) / RFU KRTAP10-2 (11738614_at) / Fold change /veh KRTAP10-2 (11738614_at) / RFU ARHGAP8 /// PRR5-ARHGAP8 (11727945_x_at) / Fold change /veh ARHGAP8 /// PRR5-ARHGAP8 (11727945_x_at) / RFU KRTAP5-7 /// NADSYN1 (11734609_at) / Fold change /veh KRTAP5-7 /// NADSYN1 (11734609_at) / RFU RASL12 (11751679_a_at) / Fold change /veh RASL12 (11751679_a_at) / RFU CDKN2B (11736163_a_at) / Fold change /veh CDKN2B (11736163_a_at) / RFU PRF1 (11729649_at) / Fold change /veh PRF1 (11729649_at) / RFU, ZNF638 /// ZNF638-IT1 / Fold change vs veh, ZNF638 /// ZNF638-IT1 / RFU, PANK3 / Fold change vs veh, PANK3 / RFU, SH3YL1 / Fold change vs veh, SH3YL1 / RFU, ZEB2 / Fold change vs veh, ZEB2 / RFU, NRIP1 / Fold change vs veh, NRIP1 / RFU, PTTG1IP / Fold change vs veh, PTTG1IP / RFU, CAPN2 / Fold change vs veh, CAPN2 / RFU, MED14 / Fold change vs veh, MED14 / RFU, SNORA58 / Fold change vs veh, SNORA58 / RFU, C1orf63 / Fold change vs veh, C1orf63 / RFU, LRRFIP1 / Fold change vs veh, LRRFIP1 / RFU, NDUFAF7 / Fold change vs veh, NDUFAF7 / RFU, SLC12A2 / Fold change vs veh, SLC12A2 / RFU, IBTK / Fold change vs veh, IBTK / RFU, ESF1 / Fold change vs veh, ESF1 / Fold change vs veh, TMEM50B / RFU, TAOK1 / Fold change vs veh, TAOK1 / RFU, ACBD3 / Fold change vs veh, ACBD3 / RFU, TMA16 / Fold change vs veh, TMA16 / RFU, RWDD3 / Fold change vs veh, RWDD3 / RFU, BCAT1 / Fold change vs veh, BCAT1 / RFU, EDEM3 / Fold change vs veh, EDEM3 / RFU, TMEM33 / Fold change vs veh, TMEM33 / RFU, WDR75 / Fold change vs veh, WDR75 / RFU, AHCTF1 / Fold change vs veh, AHCTF1 / RFU, TFRC / Fold change vs veh, TFRC / RFU, ZDHHC17 / Fold change vs veh, ZDHHC17 / RFU, NOM1 / Fold change vs veh, NOM1 / RFU, ARL8B / Fold change vs veh, ARL8B / RFU, ZBTB11 / Fold change vs veh, ZBTB11 / RFU, TAMM41 / Fold change vs veh, TAMM41 / RFU, KIAA1704 /// LOC100996395 / Fold change vs veh, KIAA1704 /// LOC100996395 / RFU, ING1 / Fold change vs veh, ING1 / RFU, TRMT61B / Fold change vs veh, TRMT61B / RFU, FUBP3 / Fold change vs veh, FUBP3 / RFU, TP53 / Fold change vs veh, TP53 / RFU, TNKS2 / Fold change vs veh, TNKS2 / RFU, ZFP14 / Fold change vs veh, ZFP14 / RFU, ACTR2 / Fold change vs veh, ACTR2 / RFU, PPP3R1 / Fold change vs veh, PPP3R1 / RFU, PIK3R1 / Fold change vs veh, PIK3R1 / RFU, HNRNPA1 / Fold change vs veh, HNRNPA1 / RFU, RNF170 / Fold change vs veh, RNF170 / RFU, ZNF28 / Fold change vs veh, ZNF28 / RFU, RNGTT / Fold change vs veh, RNGTT / RFU, OGT / Fold change vs veh, OGT / RFU, BRD1 / Fold change vs veh, BRD1 / RFU, MARS / Fold change vs veh, MARS / RFU, ZNF655 / Fold change vs veh, ZNF655 / RFU, FAHD1 / Fold change vs veh, FAHD1 / RFU, BDP1 / Fold change vs veh, BDP1 / RFU, LRRCC1 / Fold change vs veh, LRRCC1 / RFU, ARID1A / Fold change vs veh, ARID1A / RFU, ZNF146 / Fold change vs veh, ZNF146 / RFU, ZNF330 / Fold change vs veh, ZNF330 / RFU, GPN3 / Fold change vs veh, GPN3 / RFU, C9orf123 / Fold change vs veh, C9orf123 / RFU, N4BP2L2 / Fold change vs veh, N4BP2L2 / RFU, ARFIP1 / Fold change vs veh, ARFIP1 / RFU, FAM179B / Fold change vs veh, FAM179B / RFU, BCL10 / Fold change vs veh, BCL10 / RFU, UHRF1BP1L / Fold change vs veh, UHRF1BP1L / RFU, BET1 / Fold change vs veh, BET1 / RFU, CNOT2 / Fold change vs veh, CNOT2 / RFU, ZNF268 / Fold change vs veh, ZNF268 / Fold change vs veh, ZNF507 / RFU, DGCR2 / Fold change vs veh, DGCR2 / RFU, WDSUB1 / Fold change vs veh, WDSUB1 / Fold change vs veh, HSP90B1 /// MIR3652 / RFU, ADSS / Fold change vs veh, ADSS / RFU, GK / Fold change vs veh, GK / RFU, ZNF148 / Fold change vs veh, ZNF148 / RFU, TAF9 / Fold change vs veh, TAF9 / RFU, SLC1A5 / Fold change vs veh, SLC1A5 / RFU, SLMO2 / Fold change vs veh, SLMO2 / RFU, ABCC4 / Fold change vs veh, ABCC4 / RFU, LOC101060439 /// RAP1B / Fold change vs veh, LOC101060439 /// RAP1B / RFU, RFX7 / Fold change vs veh, RFX7 / RFU, GTPBP10 / Fold change vs veh, GTPBP10 / RFU, CNEP1R1 / Fold change vs veh, CNEP1R1 / RFU, BIVM-ERCC5 /// ERCC5 / Fold change vs veh, BIVM-ERCC5 /// ERCC5 / RFU, ILF3 / Fold change vs veh, ILF3 / RFU 11762660_at / Fold change /veh 11762660_at / RFU VCAN (11757783_s_at) / Fold change /veh VCAN (11757783_s_at) / RFU DDX43 (11728927_at) / Fold change /veh DDX43 (11728927_at) / RFU KRT8 (11758188_x_at) / Fold change /veh KRT8 (11758188_x_at) / RFU NKD1 (11759106_at) / Fold change /veh NKD1 (11759106_at) / RFU SRD5A1 (11742802_a_at) / Fold change /veh SRD5A1 (11742802_a_at) / RFU TPSAB1 /// TPSB2 (11721975_s_at) / Fold change /veh TPSAB1 /// TPSB2 (11721975_s_at) / RFU GSTM3 (11746129_a_at) / Fold change /veh GSTM3 (11746129_a_at) / RFU IL23R (11737362_x_at) / Fold change /veh IL23R (11737362_x_at) / RFU TMEM51 (11727254_a_at) / Fold change /veh TMEM51 (11727254_a_at) / RFU PIWIL2 (11732686_x_at) / Fold change /veh PIWIL2 (11732686_x_at) / RFU ORM1 (11744905_x_at) / Fold change /veh ORM1 (11744905_x_at) / RFU CCDC152 (11743942_at) / Fold change /veh CCDC152 (11743942_at) / RFU ECM1 (11717891_a_at) / Fold change /veh ECM1 (11717891_a_at) / RFU IL23R (11748794_a_at) / Fold change /veh IL23R (11748794_a_at) / RFU TNFAIP8L3 (11732012_x_at) / Fold change /veh TNFAIP8L3 (11732012_x_at) / RFU MBOAT4 (11741988_at) / Fold change /veh MBOAT4 (11741988_at) / RFU 11764193_at / Fold change /veh 11764193_at / RFU TMEM53 (11763286_at) / Fold change /veh TMEM53 (11763286_at) / RFU MAGEB2 (11727129_at) / Fold change /veh MAGEB2 (11727129_at) / RFU TMEM200A (11744735_a_at) / Fold change /veh TMEM200A (11744735_a_at) / RFU CCDC152 (11751479_a_at) / Fold change /veh CCDC152 (11751479_a_at) / RFU FAM211A (11726209_a_at) / Fold change /veh FAM211A (11726209_a_at) / RFU RGS16 (11746705_a_at) / Fold change /veh RGS16 (11746705_a_at) / RFU VCAN (11755009_s_at) / Fold change /veh VCAN (11755009_s_at) / RFU RHOB (11743442_s_at) / Fold change /veh RHOB (11743442_s_at) / RFU RGS16 (11720943_a_at) / Fold change /veh RGS16 (11720943_a_at) / RFU RGS16 (11720944_at) / Fold change /veh RGS16 (11720944_at) / RFU, VPS4B / Fold change vs veh, VPS4B / RFU, CREB1 / Fold change vs veh, CREB1 / RFU, DNAJC13 / Fold change vs veh, DNAJC13 / RFU, GNAQ / Fold change vs veh, GNAQ / RFU, CDK5R1 / Fold change vs veh, CDK5R1 / RFU, ZRANB3 / Fold change vs veh, ZRANB3 / RFU, CUL4A / Fold change vs veh, CUL4A / RFU, CCNY / Fold change vs veh, CCNY / RFU, UFL1 / Fold change vs veh, UFL1 / RFU, COG3 / Fold change vs veh, COG3 / RFU, DIAPH2 / Fold change vs veh, DIAPH2 / RFU, SKA2 / Fold change vs veh, SKA2 / RFU, AFF3 / Fold change vs veh, AFF3 / RFU, LMF1 / Fold change vs veh, LMF1 / RFU, IPO11 / Fold change vs veh, IPO11 / RFU, DFFB / Fold change vs veh, DFFB / RFU, FOXP1 / Fold change vs veh, FOXP1 / RFU, CARD8 / Fold change vs veh, CARD8 / RFU, STRN3 / Fold change vs veh, STRN3 / RFU, ADK / Fold change vs veh, ADK / RFU, RASSF2 / Fold change vs veh, RASSF2 / RFU, WIPF1 / Fold change vs veh, WIPF1 / RFU, LARP1B / Fold change vs veh, LARP1B / RFU, RASA1 / Fold change vs veh, RASA1 / RFU, RB1 / Fold change vs veh, RB1 / RFU, PPFIA1 / Fold change vs veh, PPFIA1 / RFU, MAT2A / Fold change vs veh, MAT2A / RFU, CCT5 / Fold change vs veh, CCT5 / RFU, WDR92 / Fold change vs veh, WDR92 / RFU, CUX1 / Fold change vs veh, CUX1 / RFU, TTC7A / Fold change vs veh, TTC7A / RFU, TMEM135 / Fold change vs veh, TMEM135 / RFU, DEPTOR / Fold change vs veh, DEPTOR / RFU, CPM / Fold change vs veh, CPM / RFU, DNAJB6 / Fold change vs veh, DNAJB6 / RFU, CACNA2D3 / Fold change vs veh, CACNA2D3 / RFU, DTX4 / Fold change vs veh, DTX4 / RFU, TFCP2 / Fold change vs veh, TFCP2 / RFU, GMCL1 /// GMCL1P1 / Fold change vs veh, GMCL1 /// GMCL1P1 / RFU, AEBP2 / Fold change vs veh, AEBP2 / RFU, SNHG1 /// SNORD22 /// SNORD25 /// SNORD26 /// SNORD27 /// SNORD28 /// SNORD29 /// SNORD31 / Fold change vs veh, SNHG1 /// SNORD22 /// SNORD25 /// SNORD26 /// SNORD27 /// SNORD28 /// SNORD29 /// SNORD31 / Fold change (Aza/veh), C12orf56 (ProbeSet 11735607_a_at) / Fold change (ACY-1035/veh), C12orf56 (ProbeSet 11735607_a_at) / Fold change (Aza/veh), FGFR1OP (ProbeSet 11751329_s_at) / Fold change (ACY-1035/veh), FGFR1OP (ProbeSet 11751329_s_at) / Fold change (Aza/veh), VPS36 (ProbeSet 11739960_a_at) / Fold change (ACY-1035/veh), VPS36 (ProbeSet 11739960_a_at) / RFU SYPL1 (11715823_x_at) / Fold change /veh SYPL1 (11715823_x_at) / RFU IGFBP7 (11715501_s_at) / Fold change /veh IGFBP7 (11715501_s_at) / RFU REEP3 (11722064_at) / Fold change /veh REEP3 (11722064_at) / RFU IGLL1 (11728026_x_at) / Fold change /veh IGLL1 (11728026_x_at): dose or concentration left out as unconfirmed
Conditions: ProbeSet 11732277_a_at; LIST D

In the case of `Nc1ccc(-c2cccs2)cc1NC(=O)c1ccc2c(c1)cc(C1CC1)n2CCN1CCOCC1` [ACY-1035], the “Fold change vs veh, FOXP1” value was 0.94.
